In publication PMC10322781 (Archives of Toxicology, 2023):
Values joined by “and” are separate entries in the source; they are usually repeats but may differ in a detail not shown here. Equal entries are not always repeated.

Columns and labels:
LS180 cells = type: in vitro ADME; conditions: human
Protocol: The UPLC-MS/MS system consisted of a triple stage quadrupole mass spectrometer (Waters Xevo TQ-S, Milford, MA, USA) and an Acquity Classic UPLC® (Waters). Mass spectrometric analysis was performed by selective reaction monitoring using positive electrospray ionization. […] Because of their considerable molecular size, rifamycins were chromatographically separated on a Waters Peptide BEH C18 Column (300 Å, 1.7 μm, 2.1 mm × 50 mm) to foster optimal mass transfer kinetics. The mobile phase was composed of H20/ACN (95/5, v/v) + 0.1% FA (eluent A) and ACN + 0.1% FA (eluent B). […] The total run time was 4 min, and the column was heated to 60 °C. The injection volume was set to 20 μL with a flow rate of 0.5 mL/min. A pellet of untreated LS180 cells (500,000 cells/sample) was used for calibration standards and QC standard. […] Subsequently, proteins were precipitated with 110 μL ACN (uptake samples) or 100 μL ACN (calibration standards and QC standards). […] To determine intracellular rifamycin concentrations, measured compound concentrations were normalized to the total pellet volume. This was achieved by multiplying the measured mean cellular volume of a LS180 cell (CASY cell counter, Schärfe System, Reutlingen, Germany) by the mean cell number of four wells of an identically prepared and treated cell culture plate.

CYP3A4 [1] = test system: CYP3A4
Protocol: (§1) A random hexamer primer was used according to the manufacturer’s instructions. […] Experiments were performed in four independent biological replicates with technical duplicates (PCR runs) for each concentration.

ABCB1 = ABCB1 mRNA expression in LS180 cells (real-time RT-PCR); type: cell-based, human; conditions: for EC50 at 24 h / EC50 at 96 h / EC50 at 144 h: human, LS180 cells
Protocol: as §1

CYP3A4 [2] = test system: CYP3A4; remark: listed apart in the source
Protocol: To determine CYP3A4 activity in LS180 cells after rifamycin treatment, 20,000 cells per well were seeded into 96-well plates and allowed to grow for 3 days until 70% confluency. […] Cells were washed twice with PBS and then pre-incubated with PBS + 2% FCS for 30 min at 37 °C. PBS was removed and replaced by 50 µL of 3 µM luciferin-IPA (selective CYP3A4 substrate) and incubated for 60 min at 37 °C. After incubation, 25 µL supernatant from each well was transferred to a white 96-well plate and 25 µL detection reagent (containing luciferase) was added. Cells were subsequently incubated for 20 min at room temperature. […] CYP3A4 activity was normalized to untreated controls.

Pgp = assay: Induction of Pgp activity in LS180 cells (rhodamine123 efflux, flow cytometry); type: cell-based, human; conditions: LS180, 144 h exposure; for Emax Pgp activity (activation): fold compared to untreated cells; for EC50 at 144 h: human, LS180 cells, probe rhodamine123 (0.4 µM), with zosuquidar (10 µM), rhodamine123 efflux, read-out: EC50 Pgp activity (activation)
Protocol: To assess the induction of Pgp activity, 200,000 LS180 cells per well were seeded in a 6-well plate, cultured for 3 days and subsequently exposed to rifamycins for 144 h. After treatment, cells were harvested and subjected to the rhodamine efflux assay as described previously (Theile et al. [2013]; Weiss et al. [2008]). Briefly, cells were incubated with the fluorescent Pgp substrate rhodamine123 (0.4 µM) on a rotary shaker for 30 min at 37 °C under protection from light. Subsequently, cells were incubated with the selective Pgp inhibitor zosuquidar (10 µM) for 50 min at 37 °C on a rotary shaker. Medium without zosuquidar was used as a negative control. All washing steps were performed with ice-cold PBS at 4 °C. Intracellular rhodamine123 fluorescence was determined using a flow cytometer (MACSQuant analyzer 10, Miltenyi Biotec, Bergisch Gladbach, Germany). Thirty thousand cells were used for the analysis. For data evaluation, the ratio of zosuquidar-inhibited samples to non-inhibited samples of the rifamycin experiment was calculated and normalized to the ratio of untreated cell controls (no rifamycin treatment).

mdr1a/b = assay: Pgp inhibition calcein assay in P388/dx cells; type: cell-based, murine; conditions: for Emax Pgp inhibition: calcein assay, fold compared to untreated cells; for IC50: calcein efflux
Protocol: To investigate the potential Pgp inhibition by the rifamycins, the murine monocytic leukaemia cell line P388/dx (overexpressing the murine Pgp counterpart mdr1a/b (Boesch et al. [1991])) and the corresponding parental cell line P388 were used (kindly provided by Dr. D. Ballinari; Pharmacia & Upjohn, Milan, Italy). Cells were cultured under standard conditions with RPMI 1640 cell culture medium supplemented with FCS 10%, 2 mM glutamine, […] β-mercaptoethanol, 100 U/mL penicillin, and 100 µg/mL streptomycin sulphate. The culture medium of the P388/dx cell line was additionally supplemented with doxorubicin (final concentration: 0.45 µM) to maintain mdr1a/b expression. One day before the experiments, P388/dx cells were set to doxorubicin-free medium.
Pgp activity was determined using a calcein assay as described previously (Fröhlich et al. [2004]) with zosuquidar (10 µM) as a positive control.

P388 cells = assay: Calcein assay in parental P388 cells; type: cell-based, murine
CYP3A4 [3] = target: CYP3A4 (Homo sapiens, UniProt P08684); conditions: microsomes
Protocol: For this purpose, rifamycins were tested between 0.5 to 50 µM. […] A reaction mixture without CYP3A4 was incubated as negative control. Luminescence signals were normalized to the untreated cell control.

[4] = set-up: method as in Zhang et al. [2008]; conditions: 300 mg rifabutin; ref Zhang et al. [2008]; cited from earlier work
[5] = cited from earlier work
[6] = LS180, 24 h, fold induction compared to untreated cells
[7] = LS180, 96 h, fold induction compared to untreated cells
[8] = LS180, 144 h, fold induction compared to untreated cells
[9] = LS180, 24 h, extracellular concentration
[10] = LS180, 24 h (24*), intracellular concentrations

Chain of CYP3A4 (Homo sapiens, UniProt P08684) (P08684 whole entry): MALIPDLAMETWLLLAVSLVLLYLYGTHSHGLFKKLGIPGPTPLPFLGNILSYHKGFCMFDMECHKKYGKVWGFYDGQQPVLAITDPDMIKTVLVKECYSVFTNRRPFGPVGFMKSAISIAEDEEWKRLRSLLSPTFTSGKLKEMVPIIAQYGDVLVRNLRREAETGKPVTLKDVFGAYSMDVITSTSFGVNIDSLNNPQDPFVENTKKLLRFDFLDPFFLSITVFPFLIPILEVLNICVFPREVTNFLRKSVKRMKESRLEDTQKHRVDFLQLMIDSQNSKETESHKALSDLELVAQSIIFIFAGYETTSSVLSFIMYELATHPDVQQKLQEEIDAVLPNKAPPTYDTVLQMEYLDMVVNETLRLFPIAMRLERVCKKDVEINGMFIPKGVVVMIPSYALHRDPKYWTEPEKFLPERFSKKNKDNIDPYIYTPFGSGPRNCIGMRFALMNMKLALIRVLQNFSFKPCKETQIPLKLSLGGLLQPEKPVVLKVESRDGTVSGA

Row | SMILES | Emax ABCB1 mRNA expression (ABCB1; [6]) [fold] | Emax ABCB1 mRNA expression (ABCB1; [7]) [fold] | Emax ABCB1 mRNA expression (ABCB1; [8]) [fold] | EC50 at 24 h (ABCB1; [9]) [µM] | EC50 at 96 h (ABCB1; LS180, 96 h) [µM] | EC50 at 144 h (ABCB1; LS180, 144 h) [µM] | Emax Pgp activity (activation) (Pgp) [fold] | EC50 at 144 h (Pgp) [µM] | Emax Pgp inhibition (mdr1a/b) [fold] | IC50 (mdr1a/b) [µM] | intracellular calcein fluorescence (P388 cells) | further results
1 | CO[C@H]1/C=C/O[C@@]2(C)Oc3c(C)c(O)c4c(c3C2=O)C2=NC3(CCN(CC(C)C)CC3)NC2=C(NC(=O)/C(C)=C\C=C\[C@H](C)[C@H](O)[C@@H](C)[C@@H](O)[C@@H](C)[C@H](OC(C)=O)[C@@H]1C)C4=O [Rifabutin] | 1.4 ± 0.024 | 2.8 ± 0.16 | 4.5 ± 0.71 | 1.1 ± 0.027 | 1.8 ± 1.1 | 1.5 ± 0.72 | 2.8 ± 0.48 | 1.1 ± 0.16 | 4.9 ± 1.3 | 0.32 ± 0.1 | remained unchanged | time to reach intracellular concentration equilibrium (LS180 cells): 6 h; molar metabolite-to-parent ratio (25-O-deacetyl metabolite) (LS180 cells; 10 µM): 0.002 to 0.006; increase of CYP3A4 mRNA levels (CYP3A4 [1]): twofold; concentration dependence of CYP3A4 activity (CYP3A4 [2]): no concentration dependence; increase in CYP3A4 activity after exposure (CYP3A4 [2]): no detectable increase; IC50 (mdr1a/b; listed as rifabutin): 0.3 µM; lowering of CYP3A4 activity (CYP3A4 [3]; human): approx. 80%; expected drug concentration in the gut lumen [4]: approx. 1.4 mM; effect on dabigatran etexilate kinetics ([5]; 300 mg rifabutin, ref Lutz et al., CPT [2018b]): not affected; reduction of bioavailability of doravirine ([5]; repeated administration of 300 mg rifabutin, ref Khalilieh et al. [2018]): 50%; reduction of bioavailability of indinavir ([5]; repeated administration of 300 mg rifabutin, ref Kraft et al. [2004]): 34%
2 | CN(C)C(=N)N=C(N)N [metformin] | – | – | – | – | – | – | – | – | – | – | – | effect on CYP3A4 activity (CYP3A4 [3]): no effect
3 | CO[C@H]1/C=C/O[C@@]2(C)Oc3c(C)c(O)c4c(O)c(c(/C=N/N5CCN(C)CC5)c(O)c4c3C2=O)NC(=O)/C(C)=C\C=C\[C@H](C)[C@H](O)[C@@H](C)[C@@H](O)[C@@H](C)[C@H](OC(C)=O)[C@@H]1C [Rifampicin] | 2.6 ± 0.068 | 5.1 ± 0.12 | 7.0 ± 0.53 | 8.6 ± 0.47 | 1.1 ± 0.056 | 1 ± 0.065 | 3.2 ± 0.37 | 1 ± 0.0014 | 4.3 ± 0.53 | 13 ± 4.1 | remained unchanged | EC50 (ABCB1; [10]): 37 ± 2 µM; Emax ABCB1 mRNA expression (ABCB1; LS180, 24 h (24*), intracellular concentrations, compared to untreated): 2.6 fold and 2.6 ± 0.068 fold; EC50 at 24 h (ABCB1; [10]): 37.4 µM; IC50 (mdr1a/b; listed as rifampicin): 12.9 µM; lowering of exposure to indinavir ([5]; repetitive administration of 600 mg standard dose of rifampicin, ref Avihingsanon et al. [2012]): approx. 90%; lowering of exposure to doravirine ([5]; repetitive administration of 600 mg standard dose of rifampicin, ref Yee et al. [2017]): approx. 90%
